According to patent EP3064205A1, “Therapeutic use of isomeric forms of 2-(4-chlorophenyl)quinolin-4-yl)(piperidin-2-yl)methanol” (Glionova AB, priority 2015, dated 2016):
Like-named read-outs stand apart in the source and are kept apart here.

How the values were obtained:
Assay in all cases: 3D clonogenic assay (PDX)
Format in all cases: cell-based, human
PAXF 2094 = conditions: PAXF 2094, Pancreas; for IC50: Homo sapiens
Outline: (§1)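 Soft-agar colony formation, xenograft-derived cells (NMRI nu/nu passaged), 10-pt dilution 50 µM–0.0015 µM in duplicate, continuous drug overlay from 24 h post-plating. Incubation 8–13 d, 37 °C, 7.5% CO2. INT stain 24 h before automated colony count; relative or absolute (T/C = 50%) IC50 by 4-parameter fit.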

CXF 243 = conditions: CXF 243, Colorectal; for IC50: Homo sapiens
Outline: as §1

GXA 3040 = conditions: GXA 3040, Asian Gastric; for IC50: Homo sapiens
Outline: as §1

PAXF 1900 = conditions: PAXF 1900, Pancreas; for IC50: Homo sapiens
Outline: as §1

SXFS 1937 = conditions: SXFS 1937, Sarcoma Soft Tissue; for IC50: Homo sapiens
Outline: as §1

PAXF 2046 = conditions: PAXF 2046, Pancreas; for IC50: Homo sapiens
Outline: as §1

PAXF 2059 = conditions: PAXF 2059, Pancreas; for IC50: Homo sapiens
Outline: as §1

CXF 647 = conditions: CXF 647, Colorectal; for IC50: Homo sapiens
Outline: as §1

HNXF 908 = conditions: HNXF 908, Head and Neck; for IC50: Homo sapiens
Outline: as §1

CXF 94 = conditions: CXF 94, Colorectal; for IC50: Homo sapiens
Outline: as §1

O[C@H](c1cc(-c2ccc(Cl)cc2)nc2ccccc12)[C@@H]1CCCCN1 [S1, (R)-(2-(4-chlorophenyl)quinolin-4-yl)((S)-piperidin-2-yl)methanol]
IC50 (PAXF 2094; read-out: abs. IC50): 8.88 µM
IC50 (PAXF 2094; read-out: rel. IC50): 8.64 µM
b (bottom plateau of concentration-effect curve) (PAXF 2094): 30
t (top plateau of concentration-effect curve) (PAXF 2094): 105
b (bottom plateau of concentration-effect curve) (CXF 243): 46
t (top plateau of concentration-effect curve) (CXF 243): 102
IC50 (CXF 243; read-out: abs. IC50): 9.22 µM
IC50 (CXF 243; read-out: rel. IC50): 8.63 µM
b (bottom plateau of concentration-effect curve) (GXA 3040): 13
t (top plateau of concentration-effect curve) (GXA 3040): 94
IC50 (GXA 3040; read-out: abs. IC50): 8.84 µM
IC50 (GXA 3040; read-out: rel. IC50): 8.79 µM
IC50 (PAXF 1900; read-out: abs. IC50): 13.2 µM
IC50 (PAXF 1900; read-out: rel. IC50): 12.2 µM
b (bottom plateau of concentration-effect curve) (PAXF 1900): 33
t (top plateau of concentration-effect curve) (PAXF 1900): 114
IC50 (SXFS 1937; read-out: abs. IC50): 10.1 µM
IC50 (SXFS 1937; read-out: rel. IC50): 9.9 µM
b (bottom plateau of concentration-effect curve) (SXFS 1937): 18
t (top plateau of concentration-effect curve) (SXFS 1937): 120
IC50 (PAXF 2046; read-out: abs. IC50): 18.6 µM
IC50 (PAXF 2046; read-out: rel. IC50): 9.45 µM
b (bottom plateau of concentration-effect curve) (PAXF 2046): 38
t (top plateau of concentration-effect curve) (PAXF 2046): 100
IC50 (PAXF 2059; read-out: abs. IC50): 13.8 µM
IC50 (PAXF 2059; read-out: rel. IC50): 13 µM
b (bottom plateau of concentration-effect curve) (PAXF 2059): 18
t (top plateau of concentration-effect curve) (PAXF 2059): 130
b (bottom plateau of concentration-effect curve) (CXF 647): 20
t (top plateau of concentration-effect curve) (CXF 647): 97
IC50 (CXF 647; read-out: abs. IC50): 24.2 µM
IC50 (CXF 647; read-out: rel. IC50): 16.5 µM
b (bottom plateau of concentration-effect curve) (HNXF 908): 17
t (top plateau of concentration-effect curve) (HNXF 908): 90
IC50 (HNXF 908; read-out: abs. IC50): 5.19 µM
IC50 (HNXF 908; read-out: rel. IC50): 5.12 µM
b (bottom plateau of concentration-effect curve) (CXF 94): 8
t (top plateau of concentration-effect curve) (CXF 94): 98
IC50 (CXF 94; read-out: abs. IC50): 13.3 µM
IC50 (CXF 94; read-out: rel. IC50): 12.7 µM
